The kinase profiling compilation of Christmann-Franck et al. (2016)

Assays:
PRKACG (human) = PRKACG (human) (UniProt P22612); assay: radiometric filter-binding kinase assay, Kinase HotSpot; settings: compound 0.5 µM; ATP 10 µM
BRAF (human) = BRAF (human) (UniProt P15056); assay: as above; settings: compound 0.5 µM; ATP 10 µM
Sequence of BRAF (human) (P15056 whole entry, looked up): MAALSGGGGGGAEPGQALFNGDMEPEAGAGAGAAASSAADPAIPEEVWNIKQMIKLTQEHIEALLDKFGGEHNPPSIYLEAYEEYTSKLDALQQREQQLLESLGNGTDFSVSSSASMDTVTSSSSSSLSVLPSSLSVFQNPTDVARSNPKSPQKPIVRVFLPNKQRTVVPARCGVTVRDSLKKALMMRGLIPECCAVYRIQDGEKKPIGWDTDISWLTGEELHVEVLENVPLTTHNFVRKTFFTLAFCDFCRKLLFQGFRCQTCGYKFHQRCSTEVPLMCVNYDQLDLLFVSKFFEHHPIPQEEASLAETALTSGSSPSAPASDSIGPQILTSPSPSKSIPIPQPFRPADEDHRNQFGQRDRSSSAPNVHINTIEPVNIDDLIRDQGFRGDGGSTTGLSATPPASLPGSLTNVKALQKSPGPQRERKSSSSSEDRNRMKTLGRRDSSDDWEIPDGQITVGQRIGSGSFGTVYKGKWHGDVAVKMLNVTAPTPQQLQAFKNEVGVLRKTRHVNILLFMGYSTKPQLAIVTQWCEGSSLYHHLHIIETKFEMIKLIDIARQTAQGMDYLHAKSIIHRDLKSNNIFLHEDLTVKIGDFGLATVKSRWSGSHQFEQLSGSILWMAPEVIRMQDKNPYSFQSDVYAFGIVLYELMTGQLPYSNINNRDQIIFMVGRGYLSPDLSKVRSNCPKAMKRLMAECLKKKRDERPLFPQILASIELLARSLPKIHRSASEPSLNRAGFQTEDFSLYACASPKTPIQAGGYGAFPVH

Sequence of PRKACG (human) (P22612 whole entry, looked up): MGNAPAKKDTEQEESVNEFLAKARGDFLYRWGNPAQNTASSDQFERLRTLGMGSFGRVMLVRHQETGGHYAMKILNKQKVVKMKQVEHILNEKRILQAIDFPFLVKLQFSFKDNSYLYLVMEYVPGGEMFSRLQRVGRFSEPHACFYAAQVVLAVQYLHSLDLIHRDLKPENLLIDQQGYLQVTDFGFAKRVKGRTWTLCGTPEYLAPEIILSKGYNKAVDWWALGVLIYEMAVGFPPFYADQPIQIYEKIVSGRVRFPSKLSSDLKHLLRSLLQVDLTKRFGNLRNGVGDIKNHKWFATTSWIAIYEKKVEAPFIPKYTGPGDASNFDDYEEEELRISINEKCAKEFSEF

SMILES	residual activity (PRKACG (human)) [%]	residual activity (BRAF (human)) [%]
Cc1cncc2cccc(S(=O)(=O)N3CCCN(C(=O)CN)C[C@H]3C)c12	112	–
CS(=O)(=O)CCNCc1ccc(-c2ccc3ncnc(Nc4ccc(OCc5cccc(F)c5)c(Cl)c4)c3c2)o1	110	–
O=C1Nc2ccc(Br)cc2/C1=C\c1cc2c([nH]1)CCCC2	98.1	92.5
Cc1cccc(-c2nc(C(C)(C)C)[nH]c2-c2ccc3c(c2)OCO3)n1	119	111
N#C/C(=C\c1ccc(O)c(O)c1)C(=O)NCc1ccccc1	90.7	109
C[C@@H]1CCN(C(=O)CC#N)C[C@@H]1N(C)c1ncnc2[nH]ccc12	111	93.7
COc1ccc(S(=O)(=O)N(CCO)c2ccccc2CN(C)C/C=C/c2ccc(Cl)cc2)cc1	104	–
O=C(c1cc2cc(O)ccc2[nH]1)c1cc2cc(O)ccc2[nH]1	–	97.4
Cn1c2ccccc2c2c3c(c4c5ccccc5n(CCC#N)c4c21)CNC3=O	–	110
COc1cc(Nc2c(C#N)cnc3cc(OCCCN4CCN(C)CC4)c(OC)cc23)c(Cl)cc1Cl	99.2	91.7
CN(C)c1ccc(/C=C2\C(=O)Nc3ccccc32)cc1	–	101
N#Cc1c[nH]c2c[nH]/c(=N\Cc3cccnc3)cc2/c1=N\c1ccc(F)c(Cl)c1	115	106
CO[C@@H]1[C@H](N(C)C(=O)c2ccccc2)C[C@H]2O[C@]1(C)n1c3ccccc3c3c4c(c5c6ccccc6n2c5c31)C(=O)NC4	58.1	106
COc1cc2ncnc(Nc3ccc(Oc4ccccc4)cc3)c2cc1OC	137	79.6
O=C1C(Cl)=C(N2C(=O)CCC2=O)C(=O)c2ccccc21	95.1	96.3
COc1ccc2c(c1)/C(=C/c1cnc[nH]1)C(O)=N2	110	98.4
CN(C)CCCn1cc(C2=C(c3c[nH]c4ccccc34)C(=O)NC2=O)c2ccccc21	–	103
CN(C)S(=O)(=O)c1ccc2c(c1)/C(=C/c1cc3c([nH]1)CCCC3)C(=O)N2	114	89.2
Cc1nc(-c2ccccc2)c(-c2ccncc2)o1	108	–
Fc1ccc(-c2nc3n(c2-c2ccncc2)CCS3)cc1	116	–
O=C1c2ccccc2-c2nc3nnnn3nc21	88.5	–
COc1ccc(Cl)cc1NC(=O)Nc1cc(C)nc2ccccc12	–	98.9
O=C1NC(=O)c2c1c1c3ccccc3[nH]c1n1cncc21	–	101
c1ccc2c(-c3ccncc3)c[nH]c2c1	107	94
